Where two headings read alike, the source gives them in different places.

The target in test [1] is T1, hGluN1/hGluN2B(G820A) (Homo sapiens, UniProt Q05586+Q13224, G820A). Conditions: read-out: Glutamate EC50; calculated from ratio of responses to two glutamate concentrations, h fixed at 1.4.
Test [2] deals with T2, hGluN1/hGluN2B(L825V) (Homo sapiens, UniProt Q05586+Q13224, L825V). Conditions: read-out: Glutamate EC50; calculated from ratio of responses to two glutamate concentrations, h fixed at 1.4.
Test [3] concerns the target T3, hGluN1/hGluN2B(V618G) (Homo sapiens, UniProt Q05586+Q13224, V618G). Conditions: read-out: Glutamate EC50; calculated from ratio of responses to two glutamate concentrations, h fixed at 1.4.
The target of test [4] is T4, hGluN1/hGluN2B(V558I) (Homo sapiens, UniProt Q05586+Q13224, V558I). Conditions: read-out: Glutamate EC50; calculated from ratio of responses to two glutamate concentrations, h fixed at 1.4.
Test [5] deals with T3, hGluN1/hGluN2B(V618G). Briefly: cell-based. Conditions: read-out: Glycine EC50.
In test [6] the target is hGluN1/hGluN2B(N615I) (Homo sapiens, UniProt Q05586+Q13224, N615I). Briefly: cell-based. Conditions: read-out: Glycine EC50.
Test [7] concerns the target T4, hGluN1/hGluN2B(V558I). Briefly: cell-based. Conditions: read-out: Glycine EC50.
Test [8] deals with T2, hGluN1/hGluN2B(L825V). Briefly: cell-based. Conditions: read-out: Glycine EC50.
Test [9] concerns the target T1, hGluN1/hGluN2B(G820A). Briefly: cell-based. Conditions: read-out: Glycine EC50.
The target in test [10] is hGluN1/hGluN2B(E657G) (Homo sapiens, UniProt Q05586+Q13224, E657G). Briefly: cell-based. Conditions: read-out: Glycine EC50.
The target in test [11] is T2, hGluN1/hGluN2B(L825V). Briefly: Whole-cell patch clamp, steroid potentiation of responses tonically activated by low concentration of glutamate. The format is cell-based. Further details: expressed in transfected cells; host or cells: HEK293T. Conditions: PA-But 15 μmol · l^−1; HEK293T; mean ± SEM. The procedure:
(§1) Human embryonic kidney-293T (HEK293T) cells were used for transfection of human genes encoding for NMDA receptor subunits: hGluN1 (GenBank, accession number NP_015566) and hGluN2B (GenBank, accession number NP_000825). Equal amounts ([…]) of DNA encoding for GluN1 and GluN2B were mixed with 0.9 μl Matra-A Reagent (IBA, Gottingen, Germany) and added to confluent HEK293T cells. After trypsinization, the cells were resuspended in Opti-MEM I (ThermoFisher Scientific, Paisley, UK; Cat. #31985062) containing 1% fetal bovine serum supplemented with 15 mmol·l^−1 MgCl2, 1 mmol·l^−1 D,L-2-amino-5-phosphonopentanoic acid (D,L-AP5), and 1 μmol.l^−1 ketamine.
(§2) Mutations in the GluN2B subunit were made using the QuickChange Site-Directed Mutagenesis Kit (Agilent Technologies, Santa Clara, Calif., USA) according to the manufacturer's instructions. Mutated cDNA was transformed into ultra-competent XL1Gold E. coli cells, multiplied, positive clones were selected, and the isolated plasmide DNA was verified by sequencing (SEQme s.r.o., Dobris, Czechia, or GATC Biotech AG, Constance, Germany) All mutations were verified by DNA sequencing. Transfected HEK293T cells were identified by GFP epifluorescence. The amino acids are numbered on the basis of the full-length protein, including the signal peptide.
(§3) Experiments were performed 12-36 h after the end of transfection on cultured HEK293T cells transfected with vectors containing hGluN1/hGluN2B/GFP. Whole-cell voltage clamp current recordings were performed at room temperature (21-25° C.) at a holding potential of −60 mV using a patch-clamp amplifier (Axopatch 200B; Molecular Devices, Sunnyvale, Calif., USA) after a capacitance and series resistance (<10 MΩ) compensation of 80-90%. Data were collected (low-pass filtered at 2 kHz and sampled at 10 kHz) and analyzed using pClamp 10 (Molecular Devices). Patch pipettes (3-5 MΩ) were filled with an intracellular solution (ICS) containing (in mmol·l^−1): 120 gluconic acid, 15 CsCl, 10 BAPTA, 10 HEPES, 3 MgCl2, 1 CaCl2, and 2 ATP-Mg salt (pH-adjusted to 7.2 with CsOH) and extracellular solution (ECS) contained the following (in mmol·l^−1): 160 NaCl, 2.5 KCl, 10 HEPES, 10 glucose, 0.2 EDTA, and 0.7 CaCl2) (pH-adjusted to 7.3 with NaOH). […] The tested steroid solutions were made from freshly prepared 20 mmol·l^−1 20-oxopregn-5en-3β-yl sulfate (PE-S; pregnenolone sulfate), 5 mmol·l^−1 androst-5-en-3β-yl hemisuccinate (AND-hSuc), or 10 mmol·l^−1 20-oxo-5β-pregnan-3-yliden-4′-but-2-enoic acid stock in dimethyl sulfoxide (DMSO). The final dilution to ECS was made at 50° C. and followed by 1 min sonication (SONOREX DIGITEC DT 100/H, BADELIN electronic, Berlin, Germany) The same concentration of DMSO was added to all extracellular solutions. Control and test solution applications were made with a microprocessor-controlled multibarrel fast-perfusion system. The solution exchange rate was ˜15 ms. The following mutations of the gene encoding for hGluN2B subunit (GRIN2B) were tested: P553L; V558I; W607C; N615I; V618G; S628F; E657G; G820E; G820A; M824R; L825V. These mutations are located in the preM1, M2, M3, and M4 transmembrane domains of the receptor (FIG. 1).
Background: Patch clamp records ionic current or voltage across a cell membrane.

Test [12] concerns the target T3, hGluN1/hGluN2B(V618G). The description is as above. The format is cell-based. Further details: expressed in transfected cells; host or cells: HEK293T. Conditions: PA-But 15 μmol · l^−1; HEK293T; mean ± SEM. The protocol:
as §1, §2, §3

In test [13] the target is T5, hGluN1/hGluN2B (WT) receptors (Homo sapiens, UniProt Q05586+Q13224).
T5 construct: expressed in transfected cells; host or cells: HEK293T
Described as above. The format is cell-based. Conditions: PA-But 15 μmol · l^−1; HEK293T; mean ± SEM. The protocol:
as §1, §2, §3

Test [14] deals with T1, hGluN1/hGluN2B(G820A). Described as above. The class given is cell-based. The arrangement: The amino acids are numbered on the basis of the full-length protein, including the signal peptide; expressed in transfected cells; host or cells: HEK293T. Conditions: PA-But 15 μmol · l^−1; HEK293T; mean ± SEM. The protocol:
as §1, §2, §3

In test [15] the target is T4, hGluN1/hGluN2B(V558I). Described as above. Further details: The amino acids are numbered on the basis of the full-length protein, including the signal peptide; expressed in transfected cells; host or cells: HEK293T. Conditions: PA-But 15 μmol · l^−1; HEK293T; mean ± SEM. The format is cell-based. The protocol: as §1, §2, §3
The subject of test [16] is C57BL/6 mice (control) and BALB/c mice. Briefly: Three-chamber social behavior test. The class given is in vivo. Conditions: intraperitoneal, 1 and 10 mg/kg, dissolved in cyclodextrine. The source says:
In in vivo experiments, the effect of the steroid 20-oxo-5β-pregnan-3-ylidene-4′-but-2-enoic acid on C57BL/6 mice (control) and BALB/c mice was compared. BALB/c mice show a higher rate of anxiety behavior and lower socialization, which is considered to be a certain equivalent of autistic manifestations in humans.

Consider `N[C@@H](CCC(=O)O)C(=O)O` [Glutamate, glutamate], for which the potency estimated from few doses in test [1] was 1500 ± 300 nM; in [2], 1600 ± 200 nM; in test [3] it was 1800 ± 200 nM; in [4] it was 1600 ± 300 nM.
In the case of `NCC(=O)O` [Glycine, glycine], the potency estimated from few doses in test [5] is 270 ± 20 nM; in [6], 310 ± 20 nM; in [7], 220 ± 50 nM; in [8], 160 ± 10 nM; in test [9], 200 ± 90 nM; in test [10] it was 390 ± 80 nM.
As to `CC(=O)[C@H]1CC[C@H]2[C@@H]3CC[C@@H]4CC(=CC=CC(=O)O)CC[C@]4(C)[C@H]3CC[C@]12C` [PA-But, 20-oxo-5β-pregnan-3-ylidene-4′-but-2-enoic acid], the “Potentiating effect (%)” value in test [11] is given as 577 ± 78 (10)^††; %; in test [12] it was 67 ± 12 (3)^††; %; in test [13], 212 ± 19 (22) %; in test [14], 7 ± 3 (5)^††; %; in test [15], −9 ± 5 (4)^††; %. Also, the “Social behavior (interest in the second mouse cage vs an empty cage)” value in test [16] is listed as “greater interest in the second mouse cage than in an empty cage”.
